Numbers after ± are expanded uncertainties.
Experiments:
[1] = Crystal; DTA
[2] = Molar enthalpy of transition or fusion; settings: Crystal; DSC

| Compound | Normal melting temperature [1] | Molar enthalpy of transition or fusion [2] |
| --- | --- | --- |
| O=c1cc(O)c2ccccc2o1 [4-hydroxycoumarin] | 215.2 ± 0.39 °C |  |
| NNC(=O)c1ccncc1 [isonicotinic acid hydrazide] | 172.69 ± 1.1 °C |  |

Results, then the compound that gave them:

| Normal melting temperature [1] | Molar enthalpy of transition or fusion [2] | Compound |
| --- | --- | --- |
| 43.6 ± 0.5 °C |  | CC1=CC(=O)C(C(C)C)=CC1=O [2-isopropyl-5-methylcyclohexa-2,5-diene-1,4-dione] |
|  | 7.67 ± 0.167 kcal/mol | CC(=O)N[C@@H](CS)C(=O)O [N-acetyl-L-cysteine] |
| 74.6 ± 0.39 °C |  | CC(C)Cc1ccc(C(C)C(=O)O)cc1 (stereo not given) [ibuprofen] |
